Tested on: Pythium ultimum, pathogen of cucumber damping-off
Test: Cucumber damping-off seed treatment test (Test Example 1)
Assay type: in vivo
Settings: cucumber seeds, 18° C., 13 days
Source text: An acetone solution of ethaboxam and an acetone solution of clothianidin were mixed to prepare mixed liquids containing ethaboxam and clothianidin in predetermined concentration. These mixed liquids were adhered on the surface of cucumber (Sagamihanjiro) seeds and allowed to stand still overnight. A plastic pot was filled with sandy soil and the seeds were disseminated on it. Then the seeds were covered with sandy soil which had been mixed with a bran medium on which Pythium ultimum, pathogen of cucumber damping-off, had been allowed to grow. They were irrigated and allowed to grow at 18° C. under humidity for 13 days, and thereafter control effect was checked.
As a comparison, acetone solutions containing ethaboxam in the predetermined concentration and acetone solutions containing clothianidin in the predetermined concentration were prepared and subjected to similar tests.
The incidence of disease was calculated by Equation 1 and the control value was calculated by Equation 2 based on the incidence of disease.
A: Incidence of disease of plant in untreated area
B: Incidence of disease of plant in treated area
E=X+Y−(X×Y)/100 “Equation 2”

Row | SMILES | Actual control value (clothianidin 150 g ai/100 kg-seed alone) [%] | Actual control value (clothianidin 300 g ai/100 kg-seed alone) [%] | Actual control value (ethaboxam 5 g ai/100 kg-seed alone) [%] | Actual control value (ethaboxam 10 g ai/100 kg-seed alone) [%]
1 | CN/C(=N\[N+](=O)[O-])NCc1cnc(Cl)s1 [clothianidin] | 0.0 | 0.0 |  | 
2 | CCNc1nc(CC)c(C(=O)NC(C#N)c2cccs2)s1 (stereo not shown) [Ethaboxam, ethaboxam] |  |  | 60 | 73

Source: patent US8357681B2, “Composition and method for controlling pests” (priority 2008, dated 2013)
